From US20200172974A1, “BIOMARKER FOR ANTI-TNF THERAPY IN RETINAL DISEASES” (HADASIT MEDICAL RESEARCH SERVICES & DEVELOPMENT LTD., priority 2017, published 2020)

Legend:
[1] = tested on: choroidal sprouting (choroid-sclera complex with RPE in Matrigel); experiment: Choroid-sprouting assay (CSA), ex-vivo angiogenesis assay; type: cell-based, C57/BL6J mice; settings: fixed after 8 days
Method: Cytokines were added to the media based on the maximal level of each cytokine via ELISA of M(IFNγ and LPS)-derived media. Five (5) cytokines were tested (n=8; replicates for each cytokine): 0.25 ng/μl VEGF, 0.5 ng/μl IL-8, 2.5 ng/μl IL-6, 0.05 ng/μl IL-1β, and 0.8 5 ng/μl TNFα (PeproTech, Rocky Hill, N.J., USA). Anti-TNF (infliximab, 100 μg/μl Remsima, Celltrion Inc., South Korea) and anti-VEGF (Aflibercept, 40 μg/μl, Bayer Pharma AG, Berlin, Germany), with or without iMfs' supernatant were also studied in the CSA. Compounds' concentrations were based on previous studies (Grattendick et al., (2008)). Controls included medium-treated CSA and iMfs' supernatant treated CSA.
C57/BL6J 4-6 weeks old mice, treated in accordance with the guidelines of the Association for Research in Vision and Ophthalmology (ARVO), were utilized to generate the CSA. Experiments were conducted with the approval of the institutional animal care ethics committee. Five (5) minutes after injecting with ketamine, animals were evaluated for responses and euthanized by cervical dislocation. Eyes were immediately enucleated and kept in ice-cold ECGS medium containing 100 units/ml penicillin-streptomycin and 1% glutamine before dissection. A choroid-sclera complex from the mice was gently dissected along with retinal pigment epithelium (RPE). The complex was cut into 5-6 1 mm long pieces. Fragments were embedded in 30 μl of growth factor-reduced-Matrigel™ (BD Biosciences, Cat. 354230) in 24-well plates. The thickness of the Matrigel™ was approximately 0.4 mm. Plates were then incubated for 10 minutes in 37° C., in a 5% CO2 cell culture incubator without medium to solidify the Matrigel™. Five hundred (500) μl of medium containing ECGM (C-22010, Promocell, Germany) 2.5% supplement mix (C-9215, Promocell, Germany), 5% FCS, 100 units/ml penicillin-streptomycin, and 1% glutamine, was added to each well. For the experimental groups containing the iMfs' supernatant, the medium was replaced with 250 μl of iMfs' supernatant. Medium for each well was changed every 3 days, and the cultures were fixed with 4% PFA after 8 days. Cultures were viewed with an inverted phase-contrast CKX41 Olympus microscope, and images were photographed with an Olympus DP70 digital camera (Olympus, Tokyo, Japan).
ImageJ software was used for sprouting area quantification. Sprouting area was selected by the software and measured after excluding the choroid tissue. Background (control well, for each plate, supplemented with medium only) was subtracted and analysis was performed for each sample. Ratios of each well of experimental group and its relative control from the same eye were calculated and averaged with its replicates.

[2] = tested on: choroidal neovascularization (CNV); experiment: Laser-induced model of CNV (LI-CNV); type: in vivo, Long-Evans rats; settings: flat mounts 10 days after laser injury
Method: Long-Evans rats (8-12 weeks old) were used to generate LI-CNV. Animals were treated in accordance to the guidelines of ARVO. Experiments were conducted with the approval of the institutional animal care ethics committee. Before each procedure, rats were anesthetized by intraperitoneal injections of a mixture of 85% ketamine (Bedford Laboratories, Bedford, Ohio) and 15% xylazine (VMD, Arendonk, Belgium). Topical anesthesia (Oxybuprocaine HCL 0.4%; Fisher Pharmaceuticals, Tel-Aviv, Israel) was applied to each eye 10 minutes before intravitreal injections or laser photocoagulation.
Laser burns (5-7 burns per eye) were generated. Intravitreal injections of all compounds were performed using a PLI-100 Pico-Injector (Medical System Corp., Greenvale, N.Y.) two days following the laser to allow for CNV development, and every 2 days thereafter for a total of 10 days. iMfs were injected only once, two days after laser injury was performed.
Experimental groups included: 4 μl of PBS, 1 μl of 100 μg/μl infliximab, 1 μl of 100 μg/μl aflibercept, 1 μl of 100 μg/μl infliximab with 1×10^5 M(IFNγ and LPS) suspended in 4 μl of PBS; 1 μl of 100 μg/μl aflibercept with 1×10^5 M(IFNγ and LPS) suspended in 4 μl of PBS; and 1×10^5 M(IFNγ and LPS) suspended in 4 μl of PBS, for a total of 5 experimental groups and 1 control group. Each experimental group included 8 injected eyes of 4 rats. The compound dosage was previously described (Xu et al., (2008)). Antibiotic ointment (5% Chloramphenicol) was applied after every injection. Choroid-RPE and retinal flat mounts were prepared 10 days following the laser injury.
RPE-choroidal flat-mounts were fixated for one hour in 4% PFA and suspended overnight in isolectin solution (GS-Ib4 Alexa 594 staining solution, Molecular Probes, Eugene, Oreg.) containing 200 mM NaN3 and 1 mM CaCl2). Flat mounts were then washed 6 times for 20 minutes in PBS and embedded on a slide with a mounting medium. The CNV area around each laser injury was measured using the ImageJ software.

[3] = substance added alone to CSA medium, cytokines at maximal level found in M(IFNγ and LPS) media, infliximab 100 μg/μl
[4] = intravitreal injection together with 1×10^5 M(IFNγ and LPS) iMfs
[5] = intravitreal injection, substance alone, compared to PBS

Substance | Mean of relative ratio between treated and untreated wells±SEM (sprouting area) [1, 3] | Mean of CNV size±SEM [2, 4] | Mean of CNV size±SEM [2, 5] | Mean of relative ratio between treated and untreated wells±SEM (sprouting area) ([1]; with M(IFNγ and LPS)s' supernatant)
IL-6: recombinant cytokine (PeproTech), 2.5 ng/μl | 0.64±0.1 |  |  | 
IL-1β: recombinant cytokine (PeproTech), 0.05 ng/μl | 0.8±0.2 |  |  | 
Aflibercept [anti-VEGF] |  | 0.02±0.001 | 0.024±0.002 | 
infliximab [anti-TNF] | 1.14±0.06 | > 0.036±0.004 | 0.045±0.005 | > 1.06±0.04
IL-8: recombinant cytokine (PeproTech), 0.5 ng/μl | 0.47±0.14 |  |  | 
VEGF | 0.86±0.08 |  |  | 
TNFα | > 1.6±0.2 |  |  | 
